Test results from patent US20240301409A1, “Chemically Modified Small Activating RNA” (RACTIGEN THERAPEUTICS, priority 2021, published 2024).
Oligonucleotides are written 5' to 3', each unit as a sugar letter and its base; * is a phosphorothioate linkage, no mark a phosphodiester; rarer units and linkages stand in square brackets, end groups in braces. Plain capitals give the bases only. m = 2'-O-methyl; r = 2'-OH (RNA); f = 2'-fluoro

Columns and labels:
[1] = test system: Rag1-40 target sequence in the 3′ UTR of firefly luciferase, COS-1 cells; assay: Analysis of off-target effects (pOff-Target dual luciferase reporter in COS-1 cells); details: lysed 48 hours after transfection, luciferase activity
RNase A = biological target: T1, RNase A (Bos taurus, UniProt P61823); assay: saRNA stability analysis in the presence of RNase A (agarose gel); details: incubation 0 to 96 hours
T1 sequence (P61823 27-150): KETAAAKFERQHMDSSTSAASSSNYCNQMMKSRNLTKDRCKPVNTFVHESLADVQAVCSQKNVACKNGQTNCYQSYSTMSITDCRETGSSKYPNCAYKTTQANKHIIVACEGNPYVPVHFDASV
Procedure: The duplexes obtained at each time point above were each added to 1 μL of 10× loading buffer, and then frozen in liquid nitrogen. After incubation, all samples were detected for the double-stranded RNA by 4% agarose gel electrophoresis, and the content of each duplex was analyzed by Image J software.
The duplexes obtained at each time point indicated above were each added to 1 μL of 10× loading buffer, and then frozen in liquid nitrogen. After incubation, all samples were detected for the double-stranded RNA by 4% agarose gel electrophoresis, and the content of each duplex was analyzed by Image J software.
saRNA (1.5 μL, 10 μM) was incubated at a final concentration of 0.02 mg/mL in PBS in the presence of RNase A (Amresco, OH, USA) at 37° C. for different durations. At the end of the incubation, the mixture was snap frozen in liquid nitrogen to stop nuclease activity. Samples were analyzed on a 4% agarose gel and examined for duplex degradation.
All chemically modified duplexes (Rag1-40-1 to Rag1-40-32) were incubated with 0.02 μg/L of RNase A for different durations (0 to 96 hours). At the end of the incubation, the size and amount of duplexes were detected by agarose gel electrophoresis.

[2] = Stability of RNA duplex in human urine (agarose gel); details: 37° C.
Procedure: Double-stranded RNA (7.5 μL, 10 μM) diluted in 17.5 μL PBS was incubated with 25 μL human fresh urine at 37° C. for 0, 1, 24 and 48 hours, respectively. The duplexes obtained at each time point indicated above were each added to 1 μL of 10× loading buffer, and then frozen in liquid nitrogen. After incubation, all samples were detected for the double-stranded RNA by 4% agarose gel electrophoresis, and the content of each duplex was analyzed by Image J software.
To further test the stability of the chemically modified double-stranded saRNA in human urine, the duplexes were incubated in urine for different durations ranging from 0 to 48 hours.

TNF-α = assay: PBMC cytokine release assay, TNF-α (ELISA); format: cell-based, human; details: 10 nM, 24 hours
Procedure: Data represent mean±SD of two independent experiments. […] The values below the line indicate suppressed activities.
Each treatment group was analyzed in triplicate.

INF-α = assay: PBMC cytokine release assay, INF-α (ELISA); details: PBMC, 10 nM, 24 hours
Procedure: Cells were treated with the indicated duplexes at a final concentration of 10 nM or lipopolysaccharide (LPS) as a positive control for 24 hours, respectively. The levels of INF-α and TNF-α in the cell supernatant were detected by ELISA kit. […] Data represent mean±SD of two independent experiments.
Human peripheral blood mononuclear cells (Allcells, Alameda, CA) were seeded in a 96-well microplate at a density of approximately 10×10^4 cells/well. Transfection of dsRNA was performed using RNAiMAX (Invitrogen, Carlsbad, CA) following manufacturer's instructions. Supernatants were collected 24 hours after transfection and immediately assayed for IFN-α and TNF-α production using ELISA kit (R&D Systems). Each treatment group was analyzed in triplicate.
To assess the immunostimulatory effect of chemically modified saRNAs, human peripheral blood mononuclear cells (PBMC) from healthy donors were incubated with the double-stranded saRNAs, and INF-α and TNF-α levels in the supernatant of treated cells after 24 hours were measured.

Rag1-40-17: saRNA duplex: sense mCmCAACUCAUUCUCCAAG*U*C (SEQ ID NO 15); antisense fUAfCfUfUGGAGAAfUGAGfUfUGGfCA (SEQ ID NO 6) (sense CCAACUCAUUCUCCAAGUC; antisense UACUUGGAGAAUGAGUUGGCA; 2'-OMe, 2'-F, phosphorothioates; modified_base (1)..(2) (1,2)=2′-O-methyl(2′-OMe); modified_base (17)..(19) (17,18,19)=phosphorothioate (PS) backbone modification; modified_base (1)..(20) (1,3,4,5,12,16,17,20)=2′-fluoro)
off-target effect compared to unmodified Rag1-40, in words [1]: mitigated or similar off-target effects | degradation of duplex at 96 hours (RNase A): little or no signs of degradation | degradation of duplex at 48 hours [2]: no sign of degradation

Rag1-40-25: saRNA duplex: sense fCfCAACUCAUUCUCCAAG*U*C (SEQ ID NO 16); antisense fUAfCfUfUGGAGAAfUGAGfUfUGGfCA (SEQ ID NO 6) (sense CCAACUCAUUCUCCAAGUC; antisense UACUUGGAGAAUGAGUUGGCA; 2'-F, phosphorothioates; modified_base (1)..(2) (1,2)=2′-fluoro; modified_base (17)..(19) (17,18,19)=phosphorothioate (PS) backbone modification; modified_base (1)..(20) (1,3,4,5,12,16,17,20)=2′-fluoro)
off-target effect compared to unmodified Rag1-40, in words [1]: mitigated or similar off-target effects | degradation of duplex at 96 hours (RNase A): little or no signs of degradation | degradation of duplex at 48 hours [2]: no sign of degradation

Rag1-40-3: saRNA duplex: sense mCmCAACUCAUUCUCCAAGmUmC (SEQ ID NO 5); antisense fUmAfCfUfUmGmGmAmGmAmAfUmGmAmGfUfUmGmGfCmA (SEQ ID NO 8) (sense mCmCrArArCrUrCrArUrUrCrUrCrCrArArGmUmC)
off-target effect compared to unmodified Rag1-40, in words [1]: completely inhibited | degradation of duplex at 96 hours (RNase A): little or no signs of degradation | immunostimulatory effect (TNF-α induction) compared with Rag1-40, in words (TNF-α): unchanged immunostimulatory activity

Rag1-40-29: saRNA duplex: sense fCfCAACUCAUUCUCCAAG*U*C (SEQ ID NO 16); antisense UACUfUGGAGAAfUGAGUfUGG*fC*A (SEQ ID NO 10) (sense CCAACUCAUUCUCCAAGUC; antisense UACUUGGAGAAUGAGUUGGCA; 2'-F, phosphorothioates; modified_base (1)..(2) (1,2)=2′-fluoro; modified_base (17)..(19) (17,18,19)=phosphorothioate (PS) backbone modification; modified_base (5)..(20) (5,12,17,20)=2′-fluoro; modified_base (19)..(21) (19,20,21)=phosphorothioate (PS) backbone modification)
off-target effect compared to unmodified Rag1-40, in words [1]: mitigated or similar off-target effects | degradation of duplex at 48 hours [2]: mostly degraded | immunostimulatory activity (INF-α) compared with Rag1-40, in words (INF-α): reduced immunostimulatory activity
